Laboratory results taken from the NIST ThermoML archive (doi:10.1021/je700260f).

Settings: 283.14 K, Liquid, Vibrating tube method

FC(C(F)(F)F)C(F)(F)F [1,1,1,2,3,3,3-heptafluoropropane]
Settings	mass density [kg/m3]
933 kPa	1452.5
962 kPa	1452.6
988 kPa	1452.7
1029 kPa	1453
1062 kPa	1453.3
1091 kPa	1453.4
1127 kPa	1453.7
1160 kPa	1453.8
1193 kPa	1454
1227 kPa	1454.2
1264 kPa	1454.5
1297 kPa	1454.5
1331 kPa	1454.9
1362 kPa	1454.9
1400 kPa	1455.2
1438 kPa	1455.5
1476 kPa	1455.6
1508 kPa	1455.9
1543 kPa	1456
1576 kPa	1456.3
1621 kPa	1456.5
1656 kPa	1456.8
1696 kPa	1456.8
1725 kPa	1457.1
1760 kPa	1457.3
1800 kPa	1457.5
1829 kPa	1457.7
1869 kPa	1457.9
1899 kPa	1458.1
1939 kPa	1458.4
1978 kPa	1458.6
2027 kPa	1458.8
2062 kPa	1459.1
2097 kPa	1459.2
2137 kPa	1459.6
2167 kPa	1459.6
2214 kPa	1460
2245 kPa	1460.1
2282 kPa	1460.4
2317 kPa	1460.6
2349 kPa	1460.8
2385 kPa	1460.9
2431 kPa	1461.1
2457 kPa	1461.1
2499 kPa	1461.5
2536 kPa	1461.6
2578 kPa	1461.9
2615 kPa	1462.1
3150 kPa	1465
3179 kPa	1465.2
3208 kPa	1465.5
3236 kPa	1465.6
3261 kPa	1465.6
3292 kPa	1465.8
3316 kPa	1465.9
3349 kPa	1466.2
3370 kPa	1466.4
3404 kPa	1466.4
3440 kPa	1466.6
3467 kPa	1466.9
3502 kPa	1467
3528 kPa	1467
3555 kPa	1467.3
3582 kPa	1467.3
3606 kPa	1467.5
3630 kPa	1467.6
3997 kPa	1469.6
4037 kPa	1469.8
4059 kPa	1469.8
4089 kPa	1470.1
4112 kPa	1470.1
4138 kPa	1470.4
4161 kPa	1470.5
4194 kPa	1470.6
4220 kPa	1470.8
4246 kPa	1470.9
4268 kPa	1471.1
4295 kPa	1471.2
4326 kPa	1471.4
4370 kPa	1471.5
4397 kPa	1471.6
4431 kPa	1471.8
4454 kPa	1472
4485 kPa	1472.1
4521 kPa	1472.3
4552 kPa	1472.4
4587 kPa	1472.7
4611 kPa	1472.8
4642 kPa	1472.9
4662 kPa	1473.1
4691 kPa	1473.2
4714 kPa	1473.3
4746 kPa	1473.5
4770 kPa	1473.6
4833 kPa	1473.9
4872 kPa	1474.1
4976 kPa	1474.5
5454 kPa	1477.2
5490 kPa	1477.3
5691 kPa	1478.2
5724 kPa	1478.4
5757 kPa	1478.6
5782 kPa	1478.8
5822 kPa	1478.8
5855 kPa	1479
5879 kPa	1479.1
5908 kPa	1479.3
5934 kPa	1479.4
5968 kPa	1479.6
6005 kPa	1479.8
6027 kPa	1480
6058 kPa	1480
6101 kPa	1480.2
6135 kPa	1480.5
6165 kPa	1480.5
6229 kPa	1480.8
6973 kPa	1484.5
7472 kPa	1486.7
7512 kPa	1487.1
7539 kPa	1487.1
7568 kPa	1487.2
7596 kPa	1487.1
7625 kPa	1487.3
7646 kPa	1487.8
7680 kPa	1487.8
7705 kPa	1487.9
7731 kPa	1488
7762 kPa	1488.1
7796 kPa	1488.3
7826 kPa	1488.4
7851 kPa	1488.5
7877 kPa	1488.7
7906 kPa	1488.9
7932 kPa	1488.9
7965 kPa	1489
7991 kPa	1489.2
8025 kPa	1489.4
8050 kPa	1489.5
8079 kPa	1489.7
8109 kPa	1489.6
8138 kPa	1489.9
8164 kPa	1490.1
8197 kPa	1490
8223 kPa	1490.2
8257 kPa	1490.4
8291 kPa	1490.6
8322 kPa	1490.7
10618 kPa	1500.7
10644 kPa	1500.8
10678 kPa	1500.9
10708 kPa	1501.2
10744 kPa	1501.3
11092 kPa	1502.7
11124 kPa	1502.9
11146 kPa	1503
11176 kPa	1503.1
11211 kPa	1503.2
11232 kPa	1503.2
11263 kPa	1503.4
11289 kPa	1503.6
11324 kPa	1503.9
11358 kPa	1503.9
11384 kPa	1503.9
11414 kPa	1504.1
11455 kPa	1504.2
11478 kPa	1504.3
11508 kPa	1504.4
11538 kPa	1504.5
11565 kPa	1504.7
11601 kPa	1504.8
11631 kPa	1505
11663 kPa	1505
11698 kPa	1505.4
11725 kPa	1505.4
11760 kPa	1505.6
11791 kPa	1505.6
11822 kPa	1505.7
11844 kPa	1505.9
11874 kPa	1506
11901 kPa	1506.1
11923 kPa	1506.3
11958 kPa	1506.3
11993 kPa	1506.4
12020 kPa	1506.5
12055 kPa	1506.7
12082 kPa	1506.9
12816 kPa	1509.7
12856 kPa	1510.1
12892 kPa	1510.2
12918 kPa	1510.3
12955 kPa	1510.4
12996 kPa	1510.6
13027 kPa	1510.6
13054 kPa	1510.9
13090 kPa	1510.9
13123 kPa	1511
13165 kPa	1511.2
13197 kPa	1511.2
13235 kPa	1511.5
13290 kPa	1511.7
13323 kPa	1511.8
13385 kPa	1512
13417 kPa	1512.2
13454 kPa	1512.2
13483 kPa	1512.4
13521 kPa	1512.6
13550 kPa	1512.5
13594 kPa	1512.8
13629 kPa	1513
13672 kPa	1513.2
13707 kPa	1513.2
13754 kPa	1513.5
13783 kPa	1513.6
13814 kPa	1513.7
13848 kPa	1513.7
13878 kPa	1513.9
13913 kPa	1514.1
13943 kPa	1514.1
13983 kPa	1514.3
14013 kPa	1514.5
14057 kPa	1514.7
14086 kPa	1514.9
14121 kPa	1514.9
14157 kPa	1515.1
14187 kPa	1515.1
14217 kPa	1515.2
14261 kPa	1515.5
14304 kPa	1515.6
14343 kPa	1515.8
14377 kPa	1515.8
14406 kPa	1516.1
14435 kPa	1516.1
14464 kPa	1516.2
14504 kPa	1516.4
14534 kPa	1516.3
14580 kPa	1516.6
15750 kPa	1521.1
15778 kPa	1521.3
15811 kPa	1521.3
15838 kPa	1521.3
15867 kPa	1521.5
15896 kPa	1521.5
15929 kPa	1521.8
15966 kPa	1521.9
15994 kPa	1521.8
16031 kPa	1522
16054 kPa	1522.2
16198 kPa	1522.7
16235 kPa	1522.8
16269 kPa	1522.9
16306 kPa	1523.1
16339 kPa	1523.3
16372 kPa	1523.4
16405 kPa	1523.5
16433 kPa	1523.7
16471 kPa	1523.7
16499 kPa	1523.9
16541 kPa	1523.9
16574 kPa	1524.1
16649 kPa	1524.3
16739 kPa	1524.6
16776 kPa	1524.8
16803 kPa	1525
16836 kPa	1525
16864 kPa	1525.1
16892 kPa	1525.2
16935 kPa	1525.3
16967 kPa	1525.6
17015 kPa	1525.7
17055 kPa	1525.8
17079 kPa	1525.9
17116 kPa	1526
17145 kPa	1526.1
17173 kPa	1526.2
17206 kPa	1526.4
17248 kPa	1526.5
17271 kPa	1526.5
17304 kPa	1526.7
17332 kPa	1526.8
17370 kPa	1527
17413 kPa	1527.2
17622 kPa	1527.9
17656 kPa	1528.1
17691 kPa	1528.1
17729 kPa	1528.3
17758 kPa	1528.4
17786 kPa	1528.5
17820 kPa	1528.6
17850 kPa	1528.6
17893 kPa	1528.8
17922 kPa	1529
17961 kPa	1529
18006 kPa	1529.3
18060 kPa	1529.4
18090 kPa	1529.5
18129 kPa	1529.6
18164 kPa	1529.7
18194 kPa	1529.9
18233 kPa	1530
18274 kPa	1530
18312 kPa	1530.2
18389 kPa	1530.5
18616 kPa	1531.3
18645 kPa	1531.6
18675 kPa	1531.4
18719 kPa	1531.7
18754 kPa	1531.8
18793 kPa	1531.9
18821 kPa	1532
18862 kPa	1532.3
18911 kPa	1532.4
18933 kPa	1532.4
18973 kPa	1532.7
19007 kPa	1532.6
19042 kPa	1532.7
19087 kPa	1533
19118 kPa	1533.1
19150 kPa	1533.1
19177 kPa	1533.3
19213 kPa	1533.4
19240 kPa	1533.5
19277 kPa	1533.6
19309 kPa	1533.7
19337 kPa	1533.9
19373 kPa	1534
19406 kPa	1534.1
20075 kPa	1536.4
20104 kPa	1536.4
20142 kPa	1536.6
20175 kPa	1536.7
20372 kPa	1537.3
20424 kPa	1537.4
20453 kPa	1537.6
22509 kPa	1544.4
22609 kPa	1544.6
22639 kPa	1544.7
22675 kPa	1545
22904 kPa	1545.6
22939 kPa	1545.7
23014 kPa	1546
23096 kPa	1546.2
23454 kPa	1547.3
23496 kPa	1547.4
23531 kPa	1547.5
23562 kPa	1547.6
23603 kPa	1547.8
23638 kPa	1548
23709 kPa	1548.1
23828 kPa	1548.6
23869 kPa	1548.8
23896 kPa	1548.7
23944 kPa	1548.9
23985 kPa	1548.9
24017 kPa	1549.2
24350 kPa	1550.1
24387 kPa	1550.2
24422 kPa	1550.4
24459 kPa	1550.4
24490 kPa	1550.5
24532 kPa	1550.8
24572 kPa	1550.8
25104 kPa	1552.3
25136 kPa	1552.5
25173 kPa	1552.8
25209 kPa	1552.7
25250 kPa	1553
25282 kPa	1552.9
25327 kPa	1553.2
25365 kPa	1553.4
25402 kPa	1553.3
25434 kPa	1553.5
25476 kPa	1553.6
25550 kPa	1553.9
25673 kPa	1554.3
25766 kPa	1554.5
25800 kPa	1554.6
25832 kPa	1554.7
25913 kPa	1554.9
26847 kPa	1557.6
27304 kPa	1559.1
27346 kPa	1559.3
27389 kPa	1559.3
27418 kPa	1559.4
27466 kPa	1559.4
27495 kPa	1559.6
27777 kPa	1560.4
28197 kPa	1561.7
28230 kPa	1561.8
28264 kPa	1561.8
28306 kPa	1562.1
28335 kPa	1562.1
28371 kPa	1562
28399 kPa	1562.2
28437 kPa	1562.3
28909 kPa	1563.6
28942 kPa	1563.9
28978 kPa	1564
29016 kPa	1564.1
29044 kPa	1564.1
29121 kPa	1564.3
29155 kPa	1564.3
29185 kPa	1564.4
29223 kPa	1564.5
29257 kPa	1564.7
29291 kPa	1564.7
29319 kPa	1564.9
29391 kPa	1565
29500 kPa	1565.3
29534 kPa	1565.4
30122 kPa	1567.2
